From US10647680B2, “Urea compound, preparation method therefor and medical use thereof” (Ancureall Pharmaceutical (Shanghai) Co., Ltd., priority 2016, dated 2020)
Structures can show the parent of a compound that is named as a salt. Values belong to the molecule of their own block, whether it stands above or below them.

Columns and labels:
Solubility test = type: physicochemical; details: in water at 25° C.±2° C.
Experimental: The fine powder of the test sample was weighed into an appropriate amount of water at 25° C.±2° C. and shaken vigorously for 30 seconds every 5 minutes so that it was fully dissolved within 30 minutes. If no visible solute particles were observed, it was considered completely dissolved. “Readily soluble” means that 1 g of the test sample could be dissolved in 1-10 ml of water; and “soluble” means that 1 g of the test sample could be dissolved in 10-30 ml of water; “slightly soluble” means that 1 g of the test sample could be dissolved in 30-100 ml of water; and “sparingly soluble” means that 1 g of the test sample could be dissolved in 100-1,000 ml of water; “nearly insoluble or insoluble” means that 1 g of the test sample could not be completely dissolved in 10,000 ml of water.

[1] = tested on: OCI-AML3 (NPMc+ mutant type); assay: In vitro growth inhibition (GI50), OCI-AML3; type: cell-based; details: Homo sapiens, OCI-AML-3; Cell lines of leukemia; read-out: GI 50 OCI- AML3 NPMc+
U937 (FLT3 wild-type) = assay: In vitro growth inhibition (GI50), U937; type: cell-based; details: Homo sapiens, U-937; Cell lines of leukemia; read-out: GI 50 U937 FLT 3(WT)
[2] = tested on: RAMOS (positive expression of Brutons tyrosine protein kinase); assay: In vitro growth inhibition (GI50), RAMOS; type: cell-based; details: Homo sapiens, Cell lines of leukemia, read-out: GI 50 Ramos BTK
[3] = tested on: MOLM-13 (FLT3 ITD+/− mutant type); assay: In vitro growth inhibition (GI50), MOLM-13; type: cell-based, human; details: for GI50: Homo sapiens, MOLM-13, Cell lines of leukemia, read-out: GI 50 MOLM-13 FLT3 (ITD+/−)
[4] = tested on: K562 (FLT3 negative expression, positive expression of BCR-ABL fusion protein); assay: In vitro growth inhibition (GI50), K562; type: cell-based; details: Homo sapiens, Cell lines of leukemia, read-out: GI 50 K562 BCR-ABL
[5] = tested on: MV4-11 (FLT3 ITD+/+ mutant type); assay: In vitro growth inhibition (GI50), MV4-11; type: cell-based, human; details: for GI50: Homo sapiens, MV4-11, Cell lines of leukemia, read-out: GI 50 MV4-11 FLT3 (ITD +/+)
[6] = tested on: Kasumi-1 (c-Kit N822K mutant type); assay: In vitro growth inhibition (GI50), Kasumi-1; type: cell-based; details: Homo sapiens, Cell lines of leukemia, read-out: GI 50 Kasumi-1 Kit (N822K)
Outline: (§1)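 Cells in RPMI1640 with 10% FBS, seeded at 5–10×10^4 cells/mL, exposed next day to compound at 5,000 nM down to 0.01 nM (2- or 10-fold dilutions, ≤1% solvent) for 3–5 days at 37 °C. CCK8 absorbance at 450 nm, growth rate relative to pre-treatment and solvent controls, GI50 from concentration–growth curve.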

HL-60 (FLT3 wild type) = assay: In vitro growth inhibition (GI50), HL-60; type: cell-based; details: Homo sapiens, Cell lines of leukemia, read-out: GI 50 HL60 FLT3 (WT)
Outline: as §1

RS4; 11 (FLT3 wild type) = assay: In vitro growth inhibition (GI50), RS4; 11; type: cell-based, human; details: Homo sapiens, RS4-11; Cell lines of leukemia; read-out: GI 50 RS4: 11 FLT3 (WT)
[7] = tested on: KG-1 (expressing FGFR1OP2-FGFR1 fusion protein); assay: In vitro growth inhibition (GI50), KG-1; type: cell-based; details: Homo sapiens; Cell lines of leukemia; read-out: GI 50 KG-1 FGFR1OP 2-FGFR1
[8] = compared with the control compound AC220

SMILES: CC(C)(C)c1cc(NC(=O)Nc2ccc(-n3cnc4cc(OCCN5CCOCC5)ccc43)cc2)no1 [Compound 16 Mesylate, 1-(5-tert-butyl-isoxazol-3-yl)-3-{4-[5-(2-morpholin-4-yl-ethoxyl)-benzimidazol-1-yl]-phenyl}-urea]
Solubility (Solubility test; listed as 16 Mesylate): readily soluble (“Readily soluble” means that 1 g of the test sample could be dissolved in 1-10 ml of water)

SMILES: COc1ccc2c(c1)ncn2-c1ccc(NC(=O)Nc2cc(C(C)(C)C)n[nH]2)cc1 [Compound 71 Hydrochloride, 1-(5-tert-butyl-2H-pyrazol-3-yl)-3-[4-(5-methoxyl-benzimidazol-1-yl)-phenyl]-urea]
Solubility (Solubility test; listed as 71 Hydrochloride): slightly soluble (“slightly soluble” means that 1 g of the test sample could be dissolved in 30-100 ml of water)

SMILES: COCCOc1ccc2c(c1)ncn2-c1ccc(NC(=O)Nc2cc(C(C)(C)C)n[nH]2)cc1 [Compound 77 Benzene sulfonate, 1-(5-tert-butyl-2H-pyrazol-3-yl)-3-{4-[5-(2-methoxyl-ethoxyl)-benzimidazol-1-yl]-phenyl}-urea]
Solubility (Solubility test; listed as 77 Benzene sulfonate): slightly soluble (“slightly soluble” means that 1 g of the test sample could be dissolved in 30-100 ml of water)

SMILES: COCCOc1ccc2c(c1)ncn2-c1ccc(NC(=O)Nc2cc(C(C)(C)C)n[nH]2)cc1 [Compound 77 Hydrochloride, 1-(5-tert-butyl-2H-pyrazol-3-yl)-3-{4-[5-(2-methoxyl-ethoxyl)-benzimidazol-1-yl]-phenyl}-urea]
Solubility (Solubility test; listed as 77 Hydrochloride): slightly soluble (“slightly soluble” means that 1 g of the test sample could be dissolved in 30-100 ml of water)

SMILES: COCCOc1ccc2c(c1)ncn2-c1ccc(NC(=O)Nc2cc(C(C)(C)C)n[nH]2)cc1 [Compound 77 Trifluoroacetates, 1-(5-tert-butyl-2H-pyrazol-3-yl)-3-{4-[5-(2-methoxyl-ethoxyl)-benzimidazol-1-yl]-phenyl}-urea]
Solubility (Solubility test; listed as 77 Trifluoroacetates): slightly soluble (“slightly soluble” means that 1 g of the test sample could be dissolved in 30-100 ml of water)

SMILES: COCCOc1ccc2c(c1)ncn2-c1ccc(NC(=O)Nc2cc(C(C)(C)C)n[nH]2)cc1 [Compound 77 p-toluenesulfonate, 1-(5-tert-butyl-2H-pyrazol-3-yl)-3-{4-[5-(2-methoxyl-ethoxyl)-benzimidazol-1-yl]-phenyl}-urea]
Solubility (Solubility test; listed as 77 p-toluenesulfonate): slightly soluble (“slightly soluble” means that 1 g of the test sample could be dissolved in 30-100 ml of water)

SMILES: CN(C)CCCOc1ccc2c(c1)ncn2-c1ccc(NC(=O)Nc2cc(C(C)(C)C)n[nH]2)cc1 [Compound 81 Mesylate]
Solubility (Solubility test): readily soluble (“Readily soluble” means that 1 g of the test sample could be dissolved in 1-10 ml of water)

GI50 [1]: > 1000 nM | GI50 (U937 (FLT3 wild-type)): 100 to 1000 nM | GI50 [2]: 100 to 1000 nM | GI50 [3]: 0.01 to 0.1 nM | GI50 [4]: 100 to 1000 nM | GI50 [5]: 0.01 to 0.1 nM | GI50 (HL-60 (FLT3 wild type)): 100 to 1000 nM | GI50 (RS4; 11 (FLT3 wild type)): 10 to 100 nM
SMILES: CN(C)CCCOc1ccc2c(c1)ncn2-c1ccc(NC(=O)Nc2cc(C(C)(C)C)n[nH]2)cc1 [Compound 81]
inhibition activity against the growth of MOLM-13 cells compared with AC220 [3, 8]: stronger inhibition activity | Solubility (Solubility test; listed as 81 Free base): insoluble (“nearly insoluble or insoluble” means that 1 g of the test sample could not be completely dissolved in 10,000 ml of water) | inhibition activity against the growth of MV4-11 cells compared with AC220 [5, 8]: stronger inhibition activity | GI50 [6]: > 1000 nM | GI50 [7]: > 1000 nM

SMILES: CC(C)(C)c1cc(NC(=O)Nc2ccc(-n3cnc4cc(OCCN5CCOCC5)ccc43)cc2)[nH]n1 [Compound 89 Mesylate, 1-(5-tert-butyl-2H-pyrazol-3-yl)-3-{4-[5-(2-morpholin-4-yl-ethoxyl)-benzimidazol-1-yl]-phenyl}-urea]
Solubility (Solubility test): readily soluble (“Readily soluble” means that 1 g of the test sample could be dissolved in 1-10 ml of water)

SMILES: COCCOc1ccc2ncn(-c3ccc(NC(=O)Nc4cc(C(C)(C)C)n[nH]4)cc3)c2c1 [Compound 98 Mesylate, 1-(5-tert-butyl-2H-pyrazol-3-yl)-3-{4-[6-(2-methoxyl-ethoxyl)-benzimidazol-1-yl]-phenyl}-urea]
Solubility (Solubility test): readily soluble (“Readily soluble” means that 1 g of the test sample could be dissolved in 1-10 ml of water)

GI50 [1]: > 1000 nM | GI50 (U937 (FLT3 wild-type)): > 1000 nM | GI50 [2]: > 1000 nM | GI50 [3]: 0.1 to 1 nM | GI50 [4]: > 1000 nM | GI50 [5]: 0.1 to 1 nM | GI50 (HL-60 (FLT3 wild type)): > 1000 nM | GI50 (RS4; 11 (FLT3 wild type)): > 1000 nM
SMILES: COCCOc1ccc2ncn(-c3ccc(NC(=O)Nc4cc(C(C)(C)C)n[nH]4)cc3)c2c1 [Compound 98, 1-(5-tert-butyl-2H-pyrazol-3-yl)-3-{4-[6-(2-methoxyl-ethoxyl)-benzimidazol-1-yl]-phenyl}-urea]
Solubility (Solubility test; listed as 98 Free base): insoluble (“nearly insoluble or insoluble” means that 1 g of the test sample could not be completely dissolved in 10,000 ml of water) | GI50 [6]: > 1000 nM | GI50 [7]: > 1000 nM

SMILES: CCCCCCOc1ccc2c(c1)ncn2-c1ccc(NC(=O)n2nc(C(C)(C)C)cc2N)cc1 [Compound 117 Mesylate, 5-amino-3-tert-butyl-pyrazol-1-carboxylic acid [4-(5-hexyloxyl-benzimidazol-1-yl)-phenyl]-amide]
Solubility (Solubility test): readily soluble (“Readily soluble” means that 1 g of the test sample could be dissolved in 1-10 ml of water)

GI50 [1]: > 1000 nM | GI50 (U937 (FLT3 wild-type)): > 1000 nM | GI50 [2]: > 1000 nM | GI50 [3]: 100 to 1000 nM | GI50 [4]: > 1000 nM | GI50 [5]: 100 to 1000 nM | GI50 (HL-60 (FLT3 wild type)): > 1000 nM | GI50 (RS4; 11 (FLT3 wild type)): > 1000 nM
SMILES: CCCCCCOc1ccc2c(c1)ncn2-c1ccc(NC(=O)n2nc(C(C)(C)C)cc2N)cc1 [Compound 117, 5-amino-3-tert-butyl-pyrazol-1-carboxylic acid [4-(5-hexyloxyl-benzimidazol-1-yl)-phenyl]-amide]
Solubility (Solubility test; listed as 117 Free base): insoluble (“nearly insoluble or insoluble” means that 1 g of the test sample could not be completely dissolved in 10,000 ml of water) | GI50 [6]: > 1000 nM | GI50 [7]: > 1000 nM

SMILES: CC(C)(C)c1cc(N)n(C(=O)Nc2ccc(-n3cnc4cc(OCCO)ccc43)cc2)n1 [Compound 121 Mesylate, 5-amino-3-tert-butyl-pyrazol-1-carboxylic acid {4-[5-(2-hydroxy-ethoxyl)-benzimidazol-1-yl]-phenyl}-amide]
Solubility (Solubility test): readily soluble (“Readily soluble” means that 1 g of the test sample could be dissolved in 1-10 ml of water)

GI50 [1]: > 1000 nM | GI50 (U937 (FLT3 wild-type)): > 1000 nM | GI50 [2]: > 1000 nM | GI50 [3]: 100 to 1000 nM | GI50 [4]: > 1000 nM | GI50 [5]: 100 to 1000 nM | GI50 (HL-60 (FLT3 wild type)): > 1000 nM | GI50 (RS4; 11 (FLT3 wild type)): > 1000 nM
SMILES: CC(C)(C)c1cc(N)n(C(=O)Nc2ccc(-n3cnc4cc(OCCO)ccc43)cc2)n1 [Compound 121, 5-amino-3-tert-butyl-pyrazol-1-carboxylic acid {4-[5-(2-hydroxy-ethoxyl)-benzimidazol-1-yl]-phenyl}-amide]
Solubility (Solubility test; listed as 121 Free base): insoluble (“nearly insoluble or insoluble” means that 1 g of the test sample could not be completely dissolved in 10,000 ml of water) | GI50 [6]: > 1000 nM | GI50 [7]: > 1000 nM

SMILES: COc1cc2ncn(-c3ccc(NC(=O)n4nc(C(C)(C)C)cc4N)cc3)c2cc1OC [Compound 129 Mesylate, 5-amino-3-tert-butyl-pyrazol-1-carboxylic acid [4-(5,6-dimethoxyl-benzimidazol-1-yl)-phenyl]-amide]
Solubility (Solubility test): readily soluble (“Readily soluble” means that 1 g of the test sample could be dissolved in 1-10 ml of water)
